One assay has as its target T1, human Nav1.7 (Homo sapiens, UniProt Q15858).
T1 construct: expressed in transfected cells; host or cells: HEK293
As to the kind of experiment: Nav 1.7 In Vitro PatchXpress (PX) Assay. The format is cell-based. The conditions noted are these: HEK 293 cells stably transfected with human Nav1.7; PatchXpress whole cell voltage clamp; partially inactivated state (holding potential yielding 20 to 50% inactivation); read-out: hNav1.7 PX IC50. As for the experimental part: Nav 1.7 In Vitro PatchXpress (PX) Assay
HEK 293 cells stably transfected with human Nav1.7 were recorded in whole cell voltage clamp mode with the PatchXpress automated electrophysiology system (Molecular Devices, LLC, Sunnyvale, Calif.). Compound effects were measured on a partially inactivated state of the sodium channel. Cells were clamped to a holding potential yielding 20 to 50% inactivation. To elicit sodium current, channels were activated by pulsing to −10 mV for 20 msec. This voltage protocol was repeated at a rate of 0.1 Hz throughout the experiment. A single concentration of test compound was applied to cells for a duration of 3 minutes. Peak sodium current was measured at the end of the compound addition period to determine percent inhibition. Three to five cells were tested per concentration, and IC50 curves were fitted to percent inhibition as a function of concentration.
T1 sequence (Q15858 whole entry): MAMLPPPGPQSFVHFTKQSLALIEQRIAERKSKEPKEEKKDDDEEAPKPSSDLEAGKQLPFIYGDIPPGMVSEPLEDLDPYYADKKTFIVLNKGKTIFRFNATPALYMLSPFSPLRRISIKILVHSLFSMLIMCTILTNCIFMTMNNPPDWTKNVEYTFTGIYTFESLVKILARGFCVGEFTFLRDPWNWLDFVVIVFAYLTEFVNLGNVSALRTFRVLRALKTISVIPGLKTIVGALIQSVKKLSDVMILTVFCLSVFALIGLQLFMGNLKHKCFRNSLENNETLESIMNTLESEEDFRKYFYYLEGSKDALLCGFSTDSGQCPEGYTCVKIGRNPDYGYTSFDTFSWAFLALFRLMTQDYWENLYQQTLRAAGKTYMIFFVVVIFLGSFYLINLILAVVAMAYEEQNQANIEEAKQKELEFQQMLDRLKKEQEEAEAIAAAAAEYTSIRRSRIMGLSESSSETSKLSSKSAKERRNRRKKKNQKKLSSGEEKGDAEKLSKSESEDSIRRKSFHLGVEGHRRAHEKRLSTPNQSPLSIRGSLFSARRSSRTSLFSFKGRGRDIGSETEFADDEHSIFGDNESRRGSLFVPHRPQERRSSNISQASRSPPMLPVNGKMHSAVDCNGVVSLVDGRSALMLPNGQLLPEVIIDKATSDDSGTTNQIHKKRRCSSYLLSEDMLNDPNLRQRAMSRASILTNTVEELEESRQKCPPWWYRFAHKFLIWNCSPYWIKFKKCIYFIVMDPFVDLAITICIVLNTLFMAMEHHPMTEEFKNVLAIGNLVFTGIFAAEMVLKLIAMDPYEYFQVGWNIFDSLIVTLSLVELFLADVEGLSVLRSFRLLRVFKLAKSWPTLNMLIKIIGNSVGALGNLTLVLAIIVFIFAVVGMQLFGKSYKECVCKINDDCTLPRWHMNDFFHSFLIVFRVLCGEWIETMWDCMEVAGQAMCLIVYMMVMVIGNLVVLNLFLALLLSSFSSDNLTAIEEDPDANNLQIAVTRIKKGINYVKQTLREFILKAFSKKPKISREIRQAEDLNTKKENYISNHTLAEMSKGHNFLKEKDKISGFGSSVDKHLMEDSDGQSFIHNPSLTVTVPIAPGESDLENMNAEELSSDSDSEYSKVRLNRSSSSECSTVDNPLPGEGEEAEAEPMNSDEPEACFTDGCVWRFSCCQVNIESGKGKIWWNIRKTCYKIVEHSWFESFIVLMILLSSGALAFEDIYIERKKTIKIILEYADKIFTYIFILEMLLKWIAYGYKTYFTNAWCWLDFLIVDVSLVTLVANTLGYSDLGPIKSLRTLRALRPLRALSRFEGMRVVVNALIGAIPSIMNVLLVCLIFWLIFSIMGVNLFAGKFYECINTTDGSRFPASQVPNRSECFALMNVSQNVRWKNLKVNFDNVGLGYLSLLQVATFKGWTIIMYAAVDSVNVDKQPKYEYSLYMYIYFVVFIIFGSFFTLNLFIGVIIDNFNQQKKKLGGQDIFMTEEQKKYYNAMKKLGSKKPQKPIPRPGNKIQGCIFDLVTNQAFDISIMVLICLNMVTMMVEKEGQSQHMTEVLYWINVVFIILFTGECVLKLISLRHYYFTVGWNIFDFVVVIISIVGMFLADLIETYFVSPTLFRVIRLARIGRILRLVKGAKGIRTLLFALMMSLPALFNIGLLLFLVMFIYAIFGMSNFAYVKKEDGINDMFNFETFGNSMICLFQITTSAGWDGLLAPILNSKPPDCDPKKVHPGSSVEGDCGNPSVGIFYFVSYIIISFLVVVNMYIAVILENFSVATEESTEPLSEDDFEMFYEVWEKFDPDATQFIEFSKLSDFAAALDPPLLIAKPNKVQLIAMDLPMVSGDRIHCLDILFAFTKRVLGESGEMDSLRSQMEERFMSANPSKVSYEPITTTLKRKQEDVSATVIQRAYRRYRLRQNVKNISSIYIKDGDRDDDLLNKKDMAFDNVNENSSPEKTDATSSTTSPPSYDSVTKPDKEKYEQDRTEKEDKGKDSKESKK
On to `COc1cc(C(F)(F)F)ccc1-n1c2c(ccc1=O)CN(S(=O)(=O)Nc1ccon1)CC2` (racemic) [Example 26-(Rac), (Rac)-N-3-isoxazolyl-1-(2-methoxy-4-(trifluoromethyl)phenyl)-2-oxo-1,5,7,8-tetrahydro-1,6-naphthyridine-6(2H)-sulfonamide], for which the IC50 was above 1 µM.
For the molecule `COc1ccc(-c2ccc(C)c(Cl)c2)cc1-n1c2c(ccc1=O)CN(S(=O)(=O)Nc1cccnn1)CC2` (single isomer, unassigned) [Example 55-P, P-1-(3′-chloro-4-methoxy-4′-methyl-3-biphenylyl)-2-oxo-N-3-pyridazinyl-1,5,7,8-tetrahydro-1,6-naphthyridine-6(2H)-sulfonamide], the half-inhibitory concentration (IC50) was 0.71 µM.
Turning to `COc1ccc(-c2cccc(Cl)c2C)cc1-n1c2c(ccc1=O)CN(S(=O)(=O)Nc1cccnn1)CC2` [Example 57-P, P-1-(3′-chloro-4-methoxy-2′-methyl-3-biphenylyl)-2-oxo-N-3-pyridazinyl-1,5,7,8-tetrahydro-1,6-naphthyridine-6(2H)-sulfonamide], the IC50 was 0.232 µM.

The target of a further assay is T1, human Nav1.7. The assay is described as follows: Nav 1.7 IWB In Vitro Assay (IonWorks Barracuda). Type of assay: cell-based. Particulars: HEK293 cells stably transfected with human Nav 1.7; IonWorks Barracuda population patch-clamp; cells clamped to −20 mV for 4 minutes with compound; 26th pulse; read-out: hNav1.7 IWB IC50. As for the experimental part: Nav 1.7 IWB In Vitro Assay
HEK293 cells stably transfected with human Nav 1.7 were recorded in population patch-clamp mode with the IonWorks© Barracuda (IWB) automated electrophysiology system (Molecular Devices, LLC, Sunnyvale, Calif.). From a holding potential of −110 mV, sodium currents were elicited by a train of 26 depolarizations of 150 ms duration to −20 mV at a frequency of 5 Hz. Cells were then clamped to −20 mV for a period of 4 minutes in the presence of a single concentration of test compound. Following this compound incubation period, cells were clamped to −110 mV for three seconds to recover unbound channels and put through the same 26 pulse voltage protocol as above. Peak inward current during the 26th pulse to −20 mV in the presence of compound was divided by the peak inward current evoked by the 26th pulse to −20 mV in the absence of compound to determine percent inhibition. Concentration-response curves of percent inhibition as a function of concentration were generated to calculate IC50 values.
(Patch clamp records ionic current or voltage across a cell membrane.)
Regarding `COc1cc(Br)c(F)cc1-n1c2c(ccc1=O)CN(S(=O)(=O)Nc1ccncn1)CC2` (single isomer, unassigned) [Preparation 8f-M, M-1-(4-bromo-5-fluoro-2-methoxyphenyl)-2-oxo-N-(pyrimidin-4-yl)-1,2,7,8-tetrahydro-1,6-naphthyridine-6(5H)-sulfonamide], the IC50 was above 25 µM.
As for `COc1cc(-c2cc(F)cc(Cl)c2)c(F)cc1-n1c2c(ccc1=O)CN(S(=O)(=O)Nc1cc(C)ncn1)CC2` (single isomer, unassigned) [Example 4-M, M-1-(3′-chloro-2,5′-difluoro-5-methoxy-4-biphenylyl)-N-(6-methyl-4-pyrimidinyl)-2-oxo-1,5,7,8-tetrahydro-1,6-naphthyridine-6(2H)-sulfonamide], the IC50 stood at 8.3 µM.
`COc1cc(CCC(F)(F)F)c(Cl)cc1-n1c2c(ccc1=O)CN(S(=O)(=O)Nc1cccnn1)CC2` (single isomer, unassigned) [Example 96-M, M-1-(5-chloro-2-methoxy-4-(3,3,3-trifluoropropyl)phenyl)-2-oxo-N-(pyridazin-3-yl)-1,2,7,8-tetrahydro-1,6-naphthyridine-6(5H)-sulfonamide]: the half-inhibitory concentration (IC50) was found to be 0.856 µM.
`COc1cc(Br)c(Cl)cc1-n1c2c(ccc1=O)CN(S(=O)(=O)Nc1ccon1)CC2` (racemic) [Preparation 8c, 1-(4-bromo-5-chloro-2-methoxyphenyl)-N-3-isoxazolyl-2-oxo-1,5,7,8-tetrahydro-1,6-naphthyridine-6(2H)-sulfonamide]: the IC50 came to 2.88 µM.
Take `COc1cc(-c2cc(F)cc(Cl)c2)c(F)cc1-n1c2c(ccc1=O)CN(S(=O)(=O)Nc1ncns1)CC2` (single isomer, unassigned) [Example 5-M, M-1-(3′-chloro-2,5′-difluoro-5-methoxy-4-biphenylyl)-2-oxo-N-1,2,4-thiadiazol-5-yl-1,5,7,8-tetrahydro-1,6-naphthyridine-6(2H)-sulfonamide]: the IC50 stood at 0.726 µM.
As for `COc1cc(-c2cc(F)cc(Cl)c2)ccc1-n1c2c(ccc1=O)CN(S(=O)(=O)Nc1ccon1)CC2` (single isomer, unassigned) [Example 7-M, M-1-(3′-chloro-5′-fluoro-3-methoxy-4-biphenylyl)-N-3-isoxazolyl-2-oxo-1,5,7,8-tetrahydro-1,6-naphthyridine-6(2H)-sulfonamide], the IC50 was 1.21 µM.
In the case of `COc1cc(-c2ccc(Cl)c(C)c2)c(F)cc1-n1c2c(ccc1=O)CN(S(=O)(=O)Nc1cccnn1)CC2` (single isomer, unassigned) [Example 33-M, M-1-(4′-chloro-2-fluoro-5-methoxy-3′-methyl-4-biphenylyl)-2-oxo-N-3-pyridazinyl-1,5,7,8-tetrahydro-1,6-naphthyridine-6(2H)-sulfonamide], the concentration for half-maximal inhibition (IC50) was above 10 µM.
Turning to `COc1cc(Br)c(Cl)cc1-n1c2c(ccc1=O)CN(S(=O)(=O)Nc1ccon1)CC2` (single isomer, unassigned) [Preparation 8c-M, M-1-(4-bromo-5-chloro-2-methoxyphenyl)-N-3-isoxazolyl-2-oxo-1,5,7,8-tetrahydro-1,6-naphthyridine-6(2H)-sulfonamide], the IC50 was above 25 µM.
For the molecule `COc1cc(Br)c(F)cc1-n1c2c(ccc1=O)CN(S(=O)(=O)Nc1cccnn1)CC2` (racemic) [Preparation 8b, 1-(4-bromo-5-fluoro-2-methoxyphenyl)-2-oxo-N-3-pyridazinyl-1,5,7,8-tetrahydro-1,6-naphthyridine-6(2H)-sulfonamide], the concentration for half-maximal inhibition (IC50) came to 1.12 µM.
For `COc1cc(-c2cc(F)cc(F)c2)c(F)cc1-n1c2c(ccc1=O)CN(S(=O)(=O)Nc1cccc(F)n1)CC2` (single isomer, unassigned) [Example 14-M, M-N-(6-fluoro-2-pyridinyl)-2-oxo-1-(2,3′,5′-trifluoro-5-methoxy-4-biphenylyl)-1,5,7,8-tetrahydro-1,6-naphthyridine-6(2H)-sulfonamide], the half-maximal inhibitory concentration (IC50) was found to be 0.452 µM.
Still for that read-out and setting: the figure for `COc1cc(Br)c(Cl)cc1-n1c2c(ccc1=O)CN(S(=O)(=O)Nc1ccon1)CC2` (single isomer, unassigned) [Preparation 8c-P, P-1-(4-bromo-5-chloro-2-methoxyphenyl)-N-3-isoxazolyl-2-oxo-1,5,7,8-tetrahydro-1,6-naphthyridine-6(2H)-sulfonamide] is 0.768 µM; for `COc1cc(Br)c(F)cc1-n1c2c(ccc1=O)CN(S(=O)(=O)Nc1ncccn1)CC2` (racemic) [Preparation 8a, 1-(4-bromo-5-fluoro-2-methoxyphenyl)-2-oxo-N-2-pyrimidinyl-1,5,7,8-tetrahydro-1,6-naphthyridine-6(2H)-sulfonamide] it is 4.24 µM.
Turning to `COc1cc(-c2cccc(C(F)(F)F)c2)c(F)cc1-n1c2c(ccc1=O)CN(S(=O)(=O)Nc1ccon1)CC2` (single isomer, unassigned) [Example 16-M, M-1-(2-fluoro-5-methoxy-3′-(trifluoromethyl)-4-biphenylyl)-N-3-isoxazolyl-2-oxo-1,5,7,8-tetrahydro-1,6-naphthyridine-6(2H)-sulfonamide], the IC50 was 0.72 µM.
Same read-out and setting: the figure for `COc1cc(-c2ccc(Cl)c(C)c2)c(F)cc1-n1c2c(ccc1=O)CN(S(=O)(=O)Nc1ccon1)CC2` (single isomer, unassigned) [Example 24-M, M-1-(4′-chloro-2-fluoro-5-methoxy-3′-methyl-4-biphenylyl)-N-3-isoxazolyl-2-oxo-1,5,7,8-tetrahydro-1,6-naphthyridine-6(2H)-sulfonamide] is 0.462 µM; for `COc1cc(Br)c(F)cc1-n1c2c(ccc1=O)CN(S(=O)(=O)Nc1ccncn1)CC2` (single isomer, unassigned) [Preparation 8f-P, P-1-(4-bromo-5-fluoro-2-methoxyphenyl)-2-oxo-N-(pyrimidin-4-yl)-1,2,7,8-tetrahydro-1,6-naphthyridine-6(5H)-sulfonamide] it is 0.193 µM; for `COc1cc(-c2cc(OC)c(-n3c4c(ccc3=O)CN(S(=O)(=O)Nc3ccon3)CC4)cc2F)ccc1C` (single isomer, unassigned) [Example 58-M, M-1-(2-fluoro-3′,5-dimethoxy-4′-methyl-4-biphenylyl)-N-3-isoxazolyl-2-oxo-1,5,7,8-tetrahydro-1,6-naphthyridine-6(2H)-sulfonamide] it is 1.48 µM.
`COc1cc(-c2cc(F)cc(Cl)c2)c(F)cc1-n1c2c(ccc1=O)CN(S(=O)(=O)Nc1ccnc(C)n1)CC2` (single isomer, unassigned) [Example 6-M, M-1-(3′-chloro-2,5′-difluoro-5-methoxy-4-biphenylyl)-N-(2-methyl-4-pyrimidinyl)-2-oxo-1,5,7,8-tetrahydro-1,6-naphthyridine-6(2H)-sulfonamide]: the IC50 is 8.82 µM.
In the case of `COc1cc(C#CC2CCCC2)c(F)cc1-n1c2c(ccc1=O)CN(S(=O)(=O)Nc1ccon1)CC2` (single isomer, unassigned) [Example 34-M, M-1-(4-(cyclopentylethynyl)-5-fluoro-2-methoxyphenyl)-N-3-isoxazolyl-2-oxo-1,5,7,8-tetrahydro-1,6-naphthyridine-6(2H)-sulfonamide], the IC50 was determined as 9.72 µM.
The same measure, in the same setting: the figure for `COc1cc(-c2cc(F)cc(Cl)c2)ccc1-n1c2c(ccc1=O)CN(S(=O)(=O)Nc1cccnn1)CC2` (single isomer, unassigned) [Example 8-M, M-1-(3′-chloro-5′-fluoro-3-methoxy-4-biphenylyl)-2-oxo-N-3-pyridazinyl-1,5,7,8-tetrahydro-1,6-naphthyridine-6(2H)-sulfonamide] is 2.95 µM.

Broadly, the IC50 is the concentration that inhibits the measured activity by half.

Values taken from patent US10472356B2, “Bicyclic ketone sulfonamide compounds” (AMGEN INC., priority 2015, dated 2019).
